These results are taken from ChEMBL document CHEMBL6083214, “Synthesis, biochemical screening and in-silico investigations of arylsulfonamides bearing linear and cyclic tails” (Bioorg Med Chem Lett, 2024).

Test [1] has as its target Carbonic anhydrase 2 (Homo sapiens, UniProt P00918).
Description: Inhibition of human carbonic anhydrase II assessed as inhibition constant by stopped-flow carbon dioxide hydrase assay
In test [2] the target is Carbonic anhydrase 12 (Homo sapiens, UniProt O43570).
Description: Inhibition of human carbonic anhydrase XII assessed as inhibition constant by stopped-flow carbon dioxide hydrase assay
For test [3], the target named is Carbonic anhydrase 1 (Homo sapiens, UniProt P00915).
Description: Inhibition of human carbonic anhydrase I assessed as inhibition constant by stopped-flow carbon dioxide hydrase assay
The target in test [4] is Carbonic anhydrase 9 (Homo sapiens, UniProt Q16790).
Description: Inhibition of human carbonic anhydrase IX assessed as inhibition constant by stopped-flow carbon dioxide hydrase assay

Chain of Carbonic anhydrase 12 (O43570 whole entry): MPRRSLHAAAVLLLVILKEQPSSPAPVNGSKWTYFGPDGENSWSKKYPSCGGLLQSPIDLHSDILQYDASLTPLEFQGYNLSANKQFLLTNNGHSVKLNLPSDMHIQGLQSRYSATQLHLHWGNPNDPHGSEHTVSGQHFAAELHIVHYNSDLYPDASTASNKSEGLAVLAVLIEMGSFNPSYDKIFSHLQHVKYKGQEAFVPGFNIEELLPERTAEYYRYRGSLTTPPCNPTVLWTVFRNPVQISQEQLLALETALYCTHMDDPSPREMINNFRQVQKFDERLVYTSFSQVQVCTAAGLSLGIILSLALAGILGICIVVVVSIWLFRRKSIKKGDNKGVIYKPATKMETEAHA
Chain of Carbonic anhydrase 1 (P00915 whole entry): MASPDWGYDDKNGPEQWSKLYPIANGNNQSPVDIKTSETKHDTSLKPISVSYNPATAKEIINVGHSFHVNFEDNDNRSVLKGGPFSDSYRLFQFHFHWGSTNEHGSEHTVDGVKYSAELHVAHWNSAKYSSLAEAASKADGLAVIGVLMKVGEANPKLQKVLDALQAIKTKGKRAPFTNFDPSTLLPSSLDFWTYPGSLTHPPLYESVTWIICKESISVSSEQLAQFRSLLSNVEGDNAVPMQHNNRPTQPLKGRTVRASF

`NS(=O)(=O)c1ccc(/N=C/c2ccc(Cl)cc2)cc1`: in test [1], the Ki (commonly the dissociation constant of the complex between target and ligand, obtained from inhibition or displacement) was determined as 22.6 nM.

`NS(=O)(=O)c1ccc(/N=C/c2ccc([N+](=O)[O-])cc2)cc1` came in with a Ki in test [1] of 25.7 nM.

Take `NS(=O)(=O)c1ccc(N2C(=O)CCSC2c2ccc(F)cc2)cc1` (racemic): the Ki in test [2] was 9.4 nM; in test [3] it was 13.6 nM; in test [4], 74.6 nM; in test [1], 7.8 nM.

On to `N#Cc1ccc(C2SCCC(=O)N2c2ccc(S(N)(=O)=O)cc2)cc1` (racemic), for which the Ki in test [2] is 89.9 nM; in test [3], 8.6 nM; in test [4], 3.7 nM; in test [1], 8.2 nM.

In the case of `N#Cc1cccc(C2SCCC(=O)N2c2ccc(S(N)(=O)=O)cc2)c1` (racemic), the Ki amounted to 61.1 nM in test [2], 7.2 nM in test [3], 18.9 nM in test [4] and 14.6 nM in test [1].

In the case of `NS(=O)(=O)c1ccc(N2C(=O)CCSC2c2ccc([N+](=O)[O-])cc2)cc1` (racemic), the Ki in test [2] was determined as 7.1 nM; in test [3], 82.9 nM; in test [4] it was 54.8 nM; in test [1], 80.1 nM.

For the compound `NS(=O)(=O)c1ccc(N2C(=O)CCSC2c2ccc(Cl)cc2)cc1` (racemic), the Ki in test [2] was found to be 8.2 nM; in test [3] it was 62.4 nM; in test [4], 19.9 nM; in test [1], 9 nM.
